The values that follow come from US20130096149A1, “HETEROARYL COMPOUNDS AND COMPOSITIONS AS PROTEIN KINASE INHIBITORS” (NOVARTIS AG, priority 2010, published 2013).

A word on the IC50: it is the midpoint of a concentration-inhibition curve.

Sequence of b-Raf(V600E) (P15056 whole entry V600E): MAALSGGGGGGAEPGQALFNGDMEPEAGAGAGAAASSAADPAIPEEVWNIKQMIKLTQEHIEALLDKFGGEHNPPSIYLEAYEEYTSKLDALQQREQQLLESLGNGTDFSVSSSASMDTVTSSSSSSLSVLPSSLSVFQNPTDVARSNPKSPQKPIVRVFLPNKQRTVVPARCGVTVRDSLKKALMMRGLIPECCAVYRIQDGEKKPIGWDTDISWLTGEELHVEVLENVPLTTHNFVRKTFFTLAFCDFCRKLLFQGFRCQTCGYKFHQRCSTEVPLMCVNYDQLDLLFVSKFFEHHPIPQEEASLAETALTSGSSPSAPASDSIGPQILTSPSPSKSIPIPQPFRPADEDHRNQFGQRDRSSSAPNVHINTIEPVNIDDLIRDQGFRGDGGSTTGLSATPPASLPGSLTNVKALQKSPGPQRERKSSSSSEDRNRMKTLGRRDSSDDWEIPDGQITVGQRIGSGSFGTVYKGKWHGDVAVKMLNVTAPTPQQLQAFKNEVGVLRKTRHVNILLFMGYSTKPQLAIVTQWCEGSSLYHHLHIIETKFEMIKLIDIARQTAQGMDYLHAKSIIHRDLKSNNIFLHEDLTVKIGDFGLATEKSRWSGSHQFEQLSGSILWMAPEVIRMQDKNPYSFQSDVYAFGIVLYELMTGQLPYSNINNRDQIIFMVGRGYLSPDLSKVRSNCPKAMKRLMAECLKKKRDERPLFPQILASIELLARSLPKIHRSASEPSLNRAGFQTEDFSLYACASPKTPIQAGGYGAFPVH

This experiment has as its target b-Raf(V600E) (Homo sapiens, UniProt P15056, V600E). Nature of the experiment: Raf/Mek Amplified Luminescence Proximity Homogeneous Assay (Alpha Screen). Format: biochemical. To be noted: b-Raf(V600E) approximately 4 pM; biotinylated Mek, kinase dead approximately 10 nM; ATP 10 μM; pre-incubation 60 minutes; reaction 3 hours at room temperature; read-out: mut-bRaf IC50. As for the experimental part:
Raf/Mek Amplified Luminescence Proximity Homogeneous Assay
Assay buffer: 50 mM Tris, pH 7.5, 15 mM MgCl2, 0.01% Bovine Serum Albumin (BSA), 1 mM dithiothreitol (DTT) Stop buffer: 60 mM ethylenediaminetetraacetic acid (EDTA), 0.01% Tween® 20 Bead buffer: 50 mM Tris, pH 7.5, 0.01% Tween® 20 […]
biotinylated Mek, kinase dead
Alpha Screen detection kit (available from PerkinElmer™, #6760617R)
Anti phospho-MEK1/2 (available from Cell Signaling Technology, Inc. #9121) 384 well assay plates (White Greiner® plates, #781207) […]
b-Raf(V600E) approximately 4 pM […]
biotinylated Mek, Kinase dead approximately 10 nM
Pre-incubation time with compounds 60 minutes at room temperature
Reaction time 1 or 3 hours at room temperature
Raf and biotinylated Mek, kinase dead, were combined at 2× final concentrations in assay buffer (50 mM Tris, pH 7.5, 15 mM MgCl2, 0.01% BSA and 1 mM DTT) and dispensed 10 μl per well in assay plates (Greiner white 384 well assay plates #781207) containing 0.5 μl of 40× of a raf kinase inhibitor test compound diluted in 100% DMSO. The plate was incubated for 60 minutes at room temperature.
The Raf kinase activity reaction was started by the addition of 10 μL per well of 2×ATP diluted in assay buffer. After 3 hours (bRaf(V600E)) or 1 hour (c-Raf), the reactions were stopped with the addition of 10 μL of stop reagent (60 mM EDTA). Phosphorylated product was measured using a rabbit anti-p-MEK (Cell Signaling, #9121) antibody and the Alpha Screen IgG (ProteinA) detection Kit (PerkinElmer #6760617R), by the addition of 30 μL to the well of a mixture of the antibody (1:2000 dilution) and detection beads (1:2000 dilution of both beads) in bead buffer (50 mM Tris, pH 7.5, 0.01% Tween20). The additions were carried out under dark conditions to protect the detection beads from light. A lid was placed on top of the plate and incubated for 1 hour at room temperature, then the luminescence was read on a PerkinElmer Envision instrument. The concentration of each compound for 50% inhibition (IC50) was calculated by non-linear regression using XL Fit data analysis software.
For `COC(=O)N[C@@H](C)CNc1nccc(-c2sc(C(C)(C)C)nc2-c2cc(F)cc(NS(C)(=O)=O)c2Cl)n1` [Example 1, (S)-methyl 1-(4-(2-tert-butyl-4-(2-chloro-5-fluoro-3-(methylsulfonamido)phenyl)thiazol-5-yl)pyrimidin-2-ylamino)propan-2-ylcarbamate], the IC50 turned out to be 0.25 nM.
For the molecule `CCCS(=O)(=O)Nc1cc(F)cc(-c2nc(C(C)(C)C)sc2-c2ccncn2)c1Cl` [Example 2, N-(3-(2-tert-butyl-5-(pyrimidin-4-yl)thiazol-4-yl)-2-chloro-5-fluorophenyl)propane-1-sulfonamide], the IC50 is 0.44 nM.
With `COC(=O)N[C@@H](C)CNc1nccc(-c2sc(C3CC3)nc2-c2cc(F)cc(NS(C)(=O)=O)c2Cl)n1` [Example 3, (S)-methyl 1-(4-(4-(2-chloro-5-fluoro-3-(methylsulfonamido)phenyl)-2-cyclopropylthiazol-5-yl)pyrimidin-2-ylamino)propan-2-ylcarbamate] the figure was 0.22 nM; with `COC(=O)N[C@@H](C)CNc1nccc(-c2sc(C3CC3)nc2-c2cc(Cl)cc(NS(C)(=O)=O)c2F)n1` [Example 4, (S)-methyl 1-(4-(4-(5-chloro-2-fluoro-3-(methylsulfonamido)phenyl)-2-cyclopropylthiazol-5-yl)pyrimidin-2-ylamino)propan-2-ylcarbamate], 0.12 nM.
Next, `COC(=O)N[C@@H](C)CNc1nccc(-c2oc(C3CC3)nc2-c2cc(Cl)cc(NS(C)(=O)=O)c2F)n1` [Example 5, (S)-methyl 1-(4-(4-(5-chloro-2-fluoro-3-(methylsulfonamido)phenyl)-2-cyclopropyloxazol-5-yl)pyrimidin-2-ylamino)propan-2-ylcarbamate]: 0.82 nM; `CCCS(=O)(=O)Nc1cccc(-c2nc(C3CC3)oc2-c2ccnc(NC)n2)c1F` [Example 6, N-(3-(2-cyclopropyl-5-(2-(methylamino)pyrimidin-4-yl)oxazol-4-yl)-2-fluorophenyl)propane-1-sulfonamide]: 28 nM.
Next, `CCCS(=O)(=O)Nc1cccc(-c2nc(C(C)(C)C)sc2-c2ccnc(NC[C@H](C)NC(=O)OC)n2)c1Cl` [Example 7, (S)-methyl 1-(4-(2-tert-butyl-4-(2-chloro-3-(propylsulfonamido)phenyl)thiazol-5-yl)pyrimidin-2-ylamino)propan-2-ylcarbamate]: 0.22 nM.
`CCCS(=O)(=O)Nc1cc(F)cc(-c2nc(C(C)(C)C)sc2-c2ccnc(NC)n2)c1Cl` [Example 8]: the IC50 turned out to be 0.14 nM.
With `CCCS(=O)(=O)Nc1cc(F)cc(-c2nc(C(C)(C)C)sc2-c2ccnc(N)n2)c1Cl` [Example 9] the figure was 0.14 nM; with `CCCS(=O)(=O)Nc1cc(F)cc(-c2nc(C(C)(C)C)sc2-c2ccnc(NC[C@H](C)NC(=O)OC)n2)c1Cl` [Example 10], 0.33 nM; with `CNc1nccc(-c2sc(C(C)(C)C)nc2-c2cc(F)cc(NS(C)(=O)=O)c2Cl)n1` [Example 11], 6 nM.
With `CC(C)(C)c1nc(-c2cc(F)cc(NS(C)(=O)=O)c2Cl)c(-c2ccnc(N)n2)s1` [Example 12] the figure was 9 nM; with `CCCS(=O)(=O)Nc1cc(F)cc(-c2nc(C3CC3)sc2-c2ccnc(N)n2)c1Cl` [Example 13], 0.13 nM; with `CCCS(=O)(=O)Nc1cc(F)cc(-c2nc(C3CC3)sc2-c2ccnc(NC)n2)c1Cl` [Example 14], 0.091 nM.
Regarding `CCCS(=O)(=O)Nc1cc(F)cc(-c2nc(C3CC3)sc2-c2ccnc(NC[C@H](C)NC(=O)OC)n2)c1Cl` [Example 15], the IC50 was determined as 0.077 nM.
For the molecule `CS(=O)(=O)Nc1cc(F)cc(-c2nc(C3CC3)sc2-c2ccnc(N)n2)c1Cl` [Example 16], the IC50 amounted to 15 nM.
Next, `CS(=O)(=O)Nc1cc(F)cc(-c2nc(C3CC3)oc2-c2ccnc(N)n2)c1Cl` [Example 17]: 2.7 nM; `CNc1nccc(-c2oc(C3CC3)nc2-c2cc(F)cc(NS(C)(=O)=O)c2Cl)n1` [Example 18]: 18 nM; `COC(=O)N[C@@H](C)CNc1nccc(-c2oc(C3CC3)nc2-c2cc(F)cc(NS(C)(=O)=O)c2Cl)n1` [Example 19]: 1.5 nM.
With `CNc1nccc(-c2sc(C3CC3)nc2-c2cc(Cl)cc(NS(C)(=O)=O)c2F)n1` [Example 20] the figure was 3 nM; with `CS(=O)(=O)Nc1cc(Cl)cc(-c2nc(C3CC3)sc2-c2ccnc(N)n2)c1F` [Example 21], 5.8 nM.
Turning to `CS(=O)(=O)Nc1cc(Cl)cc(-c2nc(C3CC3)oc2-c2ccnc(N)n2)c1F` [Example 22], the IC50 was 3.3 nM.
With `CNc1nccc(-c2oc(C3CC3)nc2-c2cc(Cl)cc(NS(C)(=O)=O)c2F)n1` [Example 23] the figure was 18 nM; with `CC(C)(C)c1nc(-c2cccc(NS(C)(=O)=O)c2Cl)c(-c2ccnc(N)n2)s1` [Example 24], 46 nM; with `COC(=O)N[C@@H](C)CNc1nccc(-c2sc(C(C)(C)C)nc2-c2cccc(NS(C)(=O)=O)c2Cl)n1` [Example 25], 0.32 nM.
With `CCCS(=O)(=O)Nc1cccc(-c2nc(C(C)(C)C)sc2-c2ccnc(N)n2)c1Cl` [Example 26] the figure was 0.65 nM.
With `CNc1nccc(-c2sc(C(C)(C)C)nc2-c2cccc(NS(C)(=O)=O)c2Cl)n1` [Example 27] the figure was 44 nM; with `CCCS(=O)(=O)Nc1cccc(-c2nc(C(C)(C)C)sc2-c2ccnc(NC)n2)c1Cl` [Example 28], 1.1 nM.
As to `CCCS(=O)(=O)Nc1cccc(-c2nc(C3CC3)sc2-c2ccnc(N)n2)c1Cl` [Example 29], the IC50 stood at 3.4 nM.
With `CCCS(=O)(=O)Nc1cccc(-c2nc(C3CC3)oc2-c2ccnc(N)n2)c1Cl` [Example 30] the figure was 1.2 nM; with `CCCS(=O)(=O)Nc1cccc(-c2nc(C3CC3)oc2-c2ccnc(NC[C@H](C)NC(=O)OC)n2)c1Cl` [Example 31], 1.3 nM.
With `CS(=O)(=O)Nc1cccc(-c2nc(C3CC3)sc2-c2ccnc(N)n2)c1Cl` [Example 32] the figure was 44 nM; with `COC(=O)N[C@@H](C)CNc1nccc(-c2sc(C3CC3)nc2-c2cccc(NS(C)(=O)=O)c2Cl)n1` [Example 33], 0.42 nM; with `CCCS(=O)(=O)Nc1cccc(-c2nc(C(C)(C)C)sc2-c2ccnc(NC[C@H](C)NC(=O)OC)n2)c1F` [Example 34], 0.62 nM.
With `CCCS(=O)(=O)Nc1cccc(-c2nc(C(C)(C)C)sc2-c2ccnc(N)n2)c1F` [Example 35] the figure was 1.8 nM; with `COC(=O)N[C@@H](C)CNc1nccc(-c2sc(C(C)(C)C)nc2-c2cccc(NS(C)(=O)=O)c2F)n1` [Example 36], 0.43 nM.
As to `CCCS(=O)(=O)Nc1cccc(-c2nc(C3CC3)sc2-c2ccnc(NC)n2)c1F` [Example 37], the IC50 was determined as 5 nM.
In the case of `CCCS(=O)(=O)Nc1cccc(-c2nc(C3CC3)oc2-c2ccnc(NC[C@H](C)NC(=O)OC)n2)c1F` [Example 38], the IC50 came to 0.59 nM.
Next, `CCCS(=O)(=O)Nc1cccc(-c2nc(C3CC3)oc2-c2ccnc(N)n2)c1F` [Example 39]: 2.1 nM; `CCCS(=O)(=O)Nc1cccc(-c2nc(C3CC3)sc2-c2ccnc(NC[C@H](C)NC(=O)OC)n2)c1F` [Example 40]: 0.12 nM; `CCCS(=O)(=O)Nc1cccc(-c2nc(C3CC3)sc2-c2ccnc(N)n2)c1F` [Example 41]: 11 nM.
